Consider 80 compounds from the METLIN SMRT retention time set (Domingo-Almenara et al. 2019).

Each structure is given as a SMILES string.

This data set in a line: gradient 5% acetonitrile 3 min, to 50% in 2 min, to 85% in 15 min, held 3 min, 100 µL/min. The note with it: column: Zorbax Extend-C18 2.1 x 50 mm; eluents: water / acetonitrile, 0.1% formic acid. An outline of the steps:
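Data were gathered over 3 months by HPLC coupled to a quadrupole time-of-flight mass spectrometer, operated in positive and negative ionization mode. Mixtures of ~100 pure standards ran on a Zorbax Extend-C18 column (2.1 × 50 mm, 1.8 μm) at 100 μL/min, with water and acetonitrile each containing 0.1% formic acid and dead and dwell volumes of 40 μL and 900 μL. Retention time was read from adduct peaks picked by computer and checked manually.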
`Cc1ccc(-c2nc3cccnc3n2CCN2CCN(C(=O)NC3CCCC3)CC2)cc1` registered an RP-LC retention time of 627 s.

In the case of `COc1ccccc1-c1nc(Cn2nnc(-c3nc(-c4ccccc4Cl)no3)c2C)c(C)o1`, the RP-LC retention time came to 1120 s.

The compound `Cc1cccc(-c2nc(-c3nnn(-c4ccccc4)c3C)no2)c1` came in with an RP-LC retention time of 1140 s.

With `Cc1nnc(C2CCCCCN2C(=O)CCc2c(C)noc2C)o1` (stereo not given), the RP-LC retention time amounted to 674 s.

Take `O=C1CC(c2noc(-c3ccc(F)cc3)n2)CN1c1ccc(Cl)cc1` (stereo not given): the RP-LC retention time is 1070 s.

The compound `CC1(C)NC(=O)N(CCCCCCN2C(=O)NC(C)(C)C2=O)C1=O` displayed an RP-LC retention time of 623 s.

Compound `Cc1ccc(C(=O)NC2CCN(c3cc(-c4cccs4)[nH]n3)C2)cc1F` (stereo not given) showed an RP-LC retention time of 798 s.

Take `NC(=O)COc1cc(-c2ccccc2)nc2ccc(NC(=O)C3CC3)cc12`: the RP-LC retention time turned out to be 610 s.

`CC(=O)c1ccc(NC(=O)CC(C)n2cncn2)cc1` (stereo not given) yielded an RP-LC retention time of 604 s.

On to `CC(C)(C)c1cnc(CSc2cnc(NC(=O)C3CCNCC3)s2)o1`, for which the RP-LC retention time stood at 677 s.

For `Cc1ccc(NC(=O)Cc2nnc(-c3cnccn3)o2)cc1`, the RP-LC retention time turned out to be 698 s.

Compound `Cc1ccc(C(=O)N2CCc3cc(-c4ccno4)ccc32)cc1` showed an RP-LC retention time of 974 s.

Take `Nc1ccc(CC(CC(=O)O)C(=O)O)cc1` (stereo not given): the RP-LC retention time came out at 850 s.

In the case of `CCCN(C)C(=O)CCc1cc2cc(OC)ccc2[nH]c1=O`, the RP-LC retention time turned out to be 675 s.

With `Cc1ccc2c(c1)N(Cc1ccccc1C)N=C(C(=O)N1CCOCC1)S2(=O)=O`, the RP-LC retention time stood at 877 s.

`COC(=O)c1ncn2c1C(=O)N(Cc1ccc(F)cc1)C(C)(C(=O)NCc1ccccc1)C2` (stereo not given) showed an RP-LC retention time of 714 s.

Regarding `Cn1cc(CCN2CCN(S(=O)(=O)c3cccc(Cl)c3)CC2)c2cccnc21`, the RP-LC retention time stood at 650 s.

In turn, `O=C(NCCCN1CCCC1)C1CCN(c2cnc(N3CCCC3)nc2)CC1` had an RP-LC retention time of 542 s.

For `COc1ccc(CNC(=O)Cn2c(=O)cc(-c3nc(C4CC4)no3)c3ccccc32)cc1`, the RP-LC retention time was found to be 888 s.

The compound `CC(=O)c1cccc(NC(=O)c2noc3c2CCCCC3)c1` had an RP-LC retention time of 977 s.

Consider `COc1ccc(NC(=O)CSc2nc(N3CCCCC3)nc3ccccc23)cc1`, for which the RP-LC retention time was 695 s.

Compound `Cc1cccc(CNC(=O)C2CCN(S(=O)(=O)c3cc(C(=O)N4CCCC4)n(C)c3)CC2)c1` yielded an RP-LC retention time of 747 s.

For the compound `CCOCCCNC(=O)C1CCCN(C(=O)c2[nH]c(C)cc2C)C1` (stereo not given), the RP-LC retention time came out at 678 s.

`Cc1oc(-c2[nH]ncc2C(=O)N2CCCC2)cc1S(=O)(=O)Nc1ccc(Cl)cc1`: the RP-LC retention time turned out to be 739 s.

For the compound `COc1ccc(-c2ncc3c(n2)CCN(C(=O)c2ccc(Br)o2)C3)cc1`, the RP-LC retention time amounted to 946 s.

The compound `COc1cccc2c1OC1(C)CC2NC(=O)N1c1cccc(C(=O)O)c1` (stereo not given) displayed an RP-LC retention time of 645 s.

As for `CCn1cc(CN2CCC(C(=O)NCc3ccco3)CC2)c2ccccc21`, the RP-LC retention time was determined as 658 s.

With `Cc1ccc(NC(=O)Nc2cnn(-c3ncc(N4CCCC4)cn3)c2)c(Cl)c1`, the RP-LC retention time turned out to be 844 s.

As to `CC(C)Oc1ccccc1Cn1c(=O)oc2ccccc21`, the RP-LC retention time was determined as 1010 s.

As for `CN1C(=O)C(c2c(-c3ccc4ccccc4c3)[nH]c3[nH]c(=O)[nH]c(=O)c23)c2ccccc21` (stereo not given), the RP-LC retention time came to 721 s.

`COc1ccc(C2c3cc4c(c(OC)c3CC3OCC(=O)C32)OCO4)cc1OC` (stereo not given) returned an RP-LC retention time of 609 s.

The compound `O=C(CCc1nnc2c3cc(-c4ccccc4)nn3ccn12)N1CCC2(CC1)OCCO2` returned an RP-LC retention time of 686 s.

`Cc1ccc(C)c(NC(=O)N2CCN(c3cc(-c4ccncc4)[nH]n3)CC2)c1`: the RP-LC retention time stood at 615 s.

With `COc1ccc(NC(=O)c2cnc3c(c2)c(=O)n(C)c(=O)n3-c2ccccc2)cc1OC`, the RP-LC retention time was 771 s.

`CC(C)(C)NC(=O)N1CCC2(CC1)CN(c1ccccc1)C2=O` yielded an RP-LC retention time of 788 s.

`CCCN1C(=O)NC2(CCN(C(=O)Nc3ccccc3C(F)(F)F)CC2)C1=O` came in with an RP-LC retention time of 705 s.

In the case of `CCOCCc1c(O)nc(SC)[nH]c1=O`, the RP-LC retention time came out at 650 s.

As for `CC(=O)Nc1ccc(NC(=O)C2CCN(S(=O)(=O)c3c(C)nn(-c4ccccc4)c3C)CC2)cc1`, the RP-LC retention time was 754 s.

The compound `COc1cccc(OCC2c3ccsc3CCN2C(=O)CN(C(=O)NC(C)C)C2CC2)c1` (stereo not given) returned an RP-LC retention time of 918 s.

Turning to `Cc1c(Cl)cccc1NC(=O)/C=C/c1ccccc1`, the RP-LC retention time is 947 s.

In turn, `O=C(O)c1cc(N2CCCN(c3ncccn3)CC2)ccc1NC(=O)C1CC1` showed an RP-LC retention time of 702 s.

In turn, `CC1CC(=O)N(CC(=O)Nc2cccc(C(F)(F)F)c2)c2ccccc2S1(=O)=O` (stereo not given) came in with an RP-LC retention time of 875 s.

Compound `CC1=C(c2ccc(F)cc2)S(=O)(=O)N=C1N1CCCN(C(=O)C2CCCCC2)CC1` had an RP-LC retention time of 883 s.

In turn, `COc1ccc(-c2ccc(=O)n(Cc3nc(-c4ccc(Cl)cc4)no3)n2)cc1` registered an RP-LC retention time of 1070 s.

Regarding `CCOc1ccccc1CN1CCc2nc(N3CCN(c4ncccn4)CC3)ncc2C1`, the RP-LC retention time was 672 s.

In turn, `C(=N\n1cnnc1)/c1ccc2c(c1)CCC2` displayed an RP-LC retention time of 858 s.

Regarding `O=C(NC1CCCC1)C1CCN(C(=O)N2CCOc3ccc(Cl)cc32)CC1`, the RP-LC retention time was found to be 841 s.

In turn, `COc1cccc(C(=O)N2CCC(Oc3nc4c(C)ccc(C)c4s3)CC2)c1OC` had an RP-LC retention time of 1220 s.

Compound `C=CCN1CCN(C(=O)c2ccc3c(c2)Sc2ncccc2C(=O)N3CC)CC1` showed an RP-LC retention time of 564 s.

For `COC(=O)c1c(NCc2ccc(C)o2)c2cccc(Cl)c2[nH]c1=O`, the RP-LC retention time turned out to be 766 s.

In the case of `O=C(NCc1cccs1)C1CCCN(c2nc3ccsc3c(=O)n2Cc2ccc(F)cc2)C1` (stereo not given), the RP-LC retention time came out at 899 s.

With `COc1ccccc1-c1nc2nccc(-c3cc(OC)c(OC)c(OC)c3)n2n1`, the RP-LC retention time stood at 824 s.

`Cn1cc(-c2nc(C(=O)NCc3cccc(Cl)c3)cs2)c2cccnc21` had an RP-LC retention time of 964 s.

Take `CC(NC(=O)CCCn1c2ccccc2c2cnn(C)c(=O)c21)c1ccccc1` (stereo not given): the RP-LC retention time amounted to 873 s.

Regarding `O=C(C1CCN(c2ccc(Sc3ccccc3)nn2)CC1)N1CCOCC1`, the RP-LC retention time came out at 647 s.

In the case of `Cn1c(C(=O)Nc2ccc(F)cc2Cl)cc2c(=O)oc3ccccc3c21`, the RP-LC retention time turned out to be 988 s.

On to `O=C(Nc1nc(-c2cccc([N+](=O)[O-])c2)cs1)c1ccc(Cl)cc1Cl`, for which the RP-LC retention time turned out to be 1060 s.

`Cc1cc(C)c2c(N3CCOCC3)nc(C(=O)NCc3ccc(F)cc3F)nc2n1` came in with an RP-LC retention time of 651 s.

On to `CCc1ccccc1NC(=O)C1CCCN(S(=O)(=O)c2c[nH]c(C(=O)N3CCCCCC3)c2)C1` (stereo not given), for which the RP-LC retention time turned out to be 911 s.

Take `CCn1cc(-c2nc(-c3ccc(Cl)cc3)no2)c(=O)c2cc(F)c(N3CCOCC3)cc21`: the RP-LC retention time is 1020 s.

With `C1CCc2nc3c(nc2C1)CCCC3`, the RP-LC retention time was 722 s.

For the compound `COc1ccc(S(=O)(=O)N2CC[C@H](n3c(=O)n(C)c4cccnc43)C2)cc1`, the RP-LC retention time was determined as 794 s.

For `COc1ccc(CC(=O)NCC(=O)Nc2nc3ccccc3[nH]2)cc1Cl`, the RP-LC retention time is 636 s.

On to `Cc1cc(C)c2c(N3CCSCC3)nc(C(=O)N3CCCC3)nc2n1`, for which the RP-LC retention time was determined as 617 s.

For the compound `COc1ccccc1Nc1c(-c2ccc(N(C)C)cc2)nc2cnccn12`, the RP-LC retention time was determined as 833 s.

`COc1ccc(C2(CNC(=O)C(=O)Nc3ccc(N4CCCC4=O)c(C)c3)CCCC2)cc1` registered an RP-LC retention time of 909 s.

As for `O=C(Cn1cccc1-c1nc(-c2ccc3c(c2)OCO3)no1)Nc1ccc(F)c(Cl)c1`, the RP-LC retention time was found to be 1030 s.

With `CC(C)(C)c1ccc(NS(=O)(=O)c2ccc(N)cc2)cc1`, the RP-LC retention time turned out to be 971 s.

Compound `COc1nc2ccccc2nc1N1CCCC(C(=O)NC2CCCCC2C)C1` (stereo not given) displayed an RP-LC retention time of 1090 s.

The compound `CC1CCN(C(=O)c2cc3c(s2)CCC(C(=O)N2CCOCC2)C3)CC1` (stereo not given) displayed an RP-LC retention time of 765 s.

The compound `CCCN1C(=O)COc2ccc(-c3noc(C4CC(=O)N(c5ccc(C)c(C)c5)C4)n3)cc21` (stereo not given) came in with an RP-LC retention time of 1060 s.

Regarding `CC(CCNC(=O)c1nnc(-c2ccc(S(=O)(=O)N3CCOCC3)cc2)o1)N1CCCCCC1` (stereo not given), the RP-LC retention time was 605 s.

For `CCc1cc(C2CCCN2C(=O)Nc2ccc(OC)c(OC)c2)on1` (stereo not given), the RP-LC retention time came to 724 s.

The compound `Cc1ccn2cc(-c3ccc(NC(=O)c4ccc(C(F)(F)F)cc4)cc3)nc2n1` returned an RP-LC retention time of 739 s.

For the compound `Cc1ccc(Cl)cc1N1CCN(c2ccc3cc(S(=O)(=O)N4CCCCC4C)ccc3n2)CC1` (stereo not given), the RP-LC retention time amounted to 1420 s.

Consider `COc1ccc(Cl)cc1NC(=O)NCc1ccnc(N2CCSCC2)c1`, for which the RP-LC retention time was 667 s.

On to `CCc1ccc(N2C(=O)CC(N3CCC(C(N)=O)CC3)C2=O)cc1` (stereo not given), for which the RP-LC retention time was 593 s.

Compound `CC(C)CCNC(=O)C1(C)Cn2nc(C(=O)NCc3ccccc3Br)cc2C(=O)N1C` (stereo not given) gave an RP-LC retention time of 838 s.

Compound `O=C(Cc1ccc(NC(=O)C2CC2)cc1)NCc1cccs1` showed an RP-LC retention time of 659 s.

In the case of `COc1ccc(C(=O)N2CCC(COCc3ccccc3)CC2)cc1`, the RP-LC retention time was 915 s.
